In experiment [1] the target is T1, MC5-R (Homo sapiens, UniProt P33032).
T1 construct: expressed in transfected cells; host or cells: HEK-293
The experiment can be described thus: Competitive inhibition binding assay using [I125]-NDP-α-MSH, HEK-293 membranes, recombinant hMC5-R. The following applies: for inhibition at 1 µM: 1 μM compound. On the procedure:
(§1) A competitive inhibition binding assay was performed using membrane homogenates prepared from HEK-293 cells that express recombinant hMC4-R, hMC3-R, or hMC5-R, and from B-16 mouse melanoma cells (containing endogenous MC1-R). In some instances, HEK-293 cells that express recombinant hMC1-R were employed. In the examples that follow, all MC3-R, MC4-R and MC5-R values are for human recombinant receptors. MC1-R values are for B-16 mouse melanoma cells, unless the heading is “hMC1-R”, in which case the value is for human recombinant MC1-R. Assays were performed in 96 well GF/B Millipore multiscreen filtration plates (MAFB NOB10) pre-coated with 0.5% bovine serum albumin (Fraction V). […] After incubation for 60 minutes at 37° C., the assay mixture was filtered and the membranes washed three times with ice-cold buffer. Filters were dried and counted in a gamma counter for bound radioactivity. […] Maximal specific binding (100%) was defined as the difference in radioactivity (cpm) bound to cell membranes in the absence and presence of 1 μM NDP-α-MSH. […] Each assay was conducted in triplicate and the actual mean values are described, with results less than 0% reported as 0%. Ki values for test compounds were determined using Graph-Pad Prism® curve-fitting software.

Experiment [2] addresses T2, MC3-R (Homo sapiens, UniProt P41968).
T2 construct: expressed in transfected cells; host or cells: HEK-293
Description: Competitive inhibition binding assay using [I125]-NDP-α-MSH, HEK-293 membranes, recombinant hMC3-R. The following applies: for inhibition at 1 µM: 1 μM compound. On the procedure:
as §1

The target of experiment [3] is MC4-R (Homo sapiens, UniProt P32245). Description: Competitive inhibition binding assay using [I125]-NDP-α-MSH, HEK-293 membranes, recombinant hMC4-R. Also noted: expressed in transfected cells; host or cells: HEK-293. To be noted: for inhibition at 1 µM: 1 μM compound. The method, then:
as §1

Experiment [4] can be described thus: Mouse model IN feeding studies (body weight). The following applies: 20 hours. In kind it is in vivo. The method, then: Food intake and body weight after IN and IP dosing. Changes in food intake and body weight were evaluated for selected compounds. Male C57BL/6 mice were obtained from Jackson labs (Bar Harbor, Me.). Animals were individually housed in conventional plexiglass hanging cages and maintained on a controlled 12 hour on/off light cycle. Water and pelleted (Harlan Teklad 2018 18% Protein Rodent Diet) food was provided ad libitum. The mice were dosed IP (by intraperitoneal injection) after a 24 hour fast or IN (by intranasal administration) with vehicle or selected compounds (0.1-3 mg/kg, and in some cases up to 10 mg/kg). All animals were dosed once a day (or up to four consecutive days) at the start of the “lights off” period. The changes in food intake for the 4 hour and 20 hour period after dosing relative to control animals administered vehicle were determined. Body weights were determine 4 hours prior to dosing and 20 hours after dosing, and the change in body weight relative to control animals administered vehicle were determined.

The target in experiment [5] is T3, hMC1-R (Homo sapiens, UniProt Q01726).
T3 construct: expressed in transfected cells; host or cells: HEK-293
T3 sequence (Q01726 whole entry): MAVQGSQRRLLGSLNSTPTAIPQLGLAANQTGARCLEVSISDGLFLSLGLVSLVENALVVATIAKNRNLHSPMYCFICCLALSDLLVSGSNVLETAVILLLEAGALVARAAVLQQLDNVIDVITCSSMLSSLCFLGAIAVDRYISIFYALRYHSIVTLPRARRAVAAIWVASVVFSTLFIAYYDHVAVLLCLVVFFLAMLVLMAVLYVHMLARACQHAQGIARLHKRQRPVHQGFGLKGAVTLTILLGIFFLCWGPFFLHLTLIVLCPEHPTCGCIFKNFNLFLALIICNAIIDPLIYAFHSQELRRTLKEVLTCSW
Description: Competitive inhibition binding assay using [I125]-NDP-α-MSH, HEK-293 membranes, recombinant hMC1-R. The following applies: human recombinant MC1-R; for inhibition at 1 µM: 1 μM compound. The method, then:
as §1

The target of experiment [6] is T4, MC1-R (Mus musculus, UniProt Q01727).
T4 construct: from B-16 mouse melanoma cells (containing endogenous MC1-R); endogenous in cells; host or cells: B-16 mouse melanoma cells (membrane homogenates)
T4 sequence (Q01727 whole entry): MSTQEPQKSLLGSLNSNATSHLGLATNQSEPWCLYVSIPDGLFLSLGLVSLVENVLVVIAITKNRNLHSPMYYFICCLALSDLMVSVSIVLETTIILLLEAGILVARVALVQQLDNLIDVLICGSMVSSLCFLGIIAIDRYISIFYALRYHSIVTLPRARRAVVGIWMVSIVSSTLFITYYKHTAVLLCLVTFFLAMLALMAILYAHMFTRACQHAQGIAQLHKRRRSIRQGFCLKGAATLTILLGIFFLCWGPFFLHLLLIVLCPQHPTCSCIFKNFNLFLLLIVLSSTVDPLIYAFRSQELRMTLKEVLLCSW
The experiment can be described thus: Competitive inhibition binding assay using [I125]-NDP-α-MSH, B-16 mouse melanoma cell membranes. The following applies: B-16 mouse melanoma cells; for inhibition at 1 µM: 1 μM compound. The method, then: as §1

Chain of MC4-R (P32245 whole entry): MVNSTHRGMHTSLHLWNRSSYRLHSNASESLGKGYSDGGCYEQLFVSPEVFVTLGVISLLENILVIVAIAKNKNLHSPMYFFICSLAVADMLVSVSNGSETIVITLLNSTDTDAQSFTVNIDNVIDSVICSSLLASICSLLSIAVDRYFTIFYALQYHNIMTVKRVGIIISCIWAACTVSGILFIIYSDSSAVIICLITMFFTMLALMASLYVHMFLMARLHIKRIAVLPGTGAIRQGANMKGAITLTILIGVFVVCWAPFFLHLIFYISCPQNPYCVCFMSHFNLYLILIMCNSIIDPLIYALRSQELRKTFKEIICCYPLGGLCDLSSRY
T2 sequence (P41968 whole entry): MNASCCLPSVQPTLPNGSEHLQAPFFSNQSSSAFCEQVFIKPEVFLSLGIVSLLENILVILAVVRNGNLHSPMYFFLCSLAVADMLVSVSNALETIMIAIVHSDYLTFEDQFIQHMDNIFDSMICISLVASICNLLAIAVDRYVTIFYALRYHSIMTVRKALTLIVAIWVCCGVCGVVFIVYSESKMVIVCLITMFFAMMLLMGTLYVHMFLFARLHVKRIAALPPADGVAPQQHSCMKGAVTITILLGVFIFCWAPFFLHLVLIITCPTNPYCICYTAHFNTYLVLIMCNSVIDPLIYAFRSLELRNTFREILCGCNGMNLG
T1 sequence (P33032 whole entry): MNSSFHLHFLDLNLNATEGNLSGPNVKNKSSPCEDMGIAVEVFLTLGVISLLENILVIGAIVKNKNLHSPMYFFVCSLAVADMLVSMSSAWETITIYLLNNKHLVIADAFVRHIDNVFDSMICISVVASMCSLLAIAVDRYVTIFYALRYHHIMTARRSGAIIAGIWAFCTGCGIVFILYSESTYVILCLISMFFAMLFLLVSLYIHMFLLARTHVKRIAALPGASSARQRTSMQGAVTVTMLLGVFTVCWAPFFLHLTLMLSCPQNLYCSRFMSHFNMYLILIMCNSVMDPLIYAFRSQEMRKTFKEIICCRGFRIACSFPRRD

What is called inhibition is the change of the read-out against control, counted positive when it falls. One may read the Ki as the dissociation constant of the complex between target and ligand, obtained from inhibition or displacement. On to `CC(C)C[C@@H]1CN(C(=O)[C@H](N)Cc2ccc(Cl)cc2Cl)[C@@H](CCCNCCN)CN1C(=O)[C@H](N)Cc1ccc(Cl)cc1Cl` [Example 12, (R)-2-Amino-1-{(2R,5S)-4-[(R)-2-amino-3-(2,4-dichloro-phenyl)-propionyl]-5-[3-(2-amino-ethylamino)-propyl]-2-isobutyl-piperazin-1-yl}-3-(2,4-dichloro-phenyl)-propan-1-one], for which the inhibition at 1 µM turned out to be 55% in experiment [1], 41% in experiment [2], 89% in experiment [3] and 23% in experiment [5]. Also, the Ki in experiment [2] came to 574 nM; in experiment [3], 44 nM; in experiment [5] it was 309 nM. For the same molecule, the “average decrease in body weight compared to control animals” value (“average decrease in body weight” below) in experiment [4] (0.1 mg/kg) was determined as 0.7%; in experiment [4] (0.3 mg/kg), 3.1%.

For `Cc1ccc(C[C@@H](N)CN2C[C@@H](C)N(C(=O)Cc3ccc4ccccc4c3)C[C@@H]2CCCN2CCNCC2)c(C)c1` [Example 4], the inhibition at 1 µM worked out at 12% in experiment [6], 97% in experiment [1], 43% in experiment [2] and 55% in experiment [3].

Consider `CC(C)C[C@@H]1CN(C(=O)[C@H](N)Cc2ccc(Cl)c(Cl)c2)[C@@H](CCCCNCCN)CN1C(=O)[C@H](N)Cc1ccc(Cl)c(Cl)c1` [Example 22, (R)-2-Amino-1-{(2R,5S)-4-[(R)-2-amino-3-(3,4-dichloro-phenyl)-propionyl]-5-[4-(2-amino-ethylamino)-butyl]-2-isobutyl-piperazin-1-yl}-3-(3,4-dichloro-phenyl)-propan-1-one], for which the Ki in experiment [1] was 179 nM; in experiment [2] it was 69 nM; in experiment [3], 4 nM; in experiment [5], 116 nM. The “average decrease in body weight” value in experiment [4] (0.1 mg/kg) turned out to be 0.6%; in experiment [4] (0.3 mg/kg) it was 4.9%.

Take `NCCNCCCC[C@H]1CN(C(=O)[C@H](N)Cc2ccc3ccccc3c2)[C@H](CC2CCCCC2)CN1C(=O)[C@H](N)Cc1ccc2ccccc2c1` [Example 23, (R)-2-Amino-1-[(2R,5S)-5-[4-(2-amino-ethylamino)-butyl]-4-((R)-2-amino-3-naphthalen-2-yl-propionyl)-2-cyclohexylmethyl-piperazin-1-yl]-3-naphthalen-2-yl-propan-1-one]: the Ki in experiment [1] stood at 103 nM; in experiment [2], 435 nM; in experiment [3], 20 nM; in experiment [5], 153 nM. In addition, the “average decrease in body weight” value in experiment [4] (0.1 mg/kg) is listed as 1.6%; in experiment [4] (0.3 mg/kg), 2.6%.

As to `CC(C)C[C@@H]1CN(C(=O)[C@H](N)Cc2ccc3ccccc3c2)[C@@H](CCCNCCN)CN1C(=O)[C@H](N)Cc1ccc2ccccc2c1` [Example 13, (R)-2-Amino-1-[(2R,5S)-5-[3-(2-amino-ethylamino)-propyl]-4-((R)-2-amino-3-naphthalen-2-yl-propionyl)-2-isobutyl-piperazin-1-yl]-3-naphthalen-2-yl-propan-1-one], the inhibition at 1 µM is 57% in experiment [1], 79% in experiment [2], 96% in experiment [3] and 40% in experiment [5]. In addition, the inhibition constant (Ki) is 127 nM in experiment [2], 13 nM in experiment [3] and 135 nM in experiment [5]. Further, the “average decrease in body weight” value in experiment [4] (0.1 mg/kg) is 1%; in experiment [4] (0.3 mg/kg), 3%; in experiment [4] (1 mg/kg), 3.2%.

As to `Cc1ccc(C[C@@H](N)CN2C[C@@H](C)N(C(=O)Cc3ccc4ccccc4c3)C[C@@H]2CCCNC2CCNC2)c(C)c1` (stereo partly drawn) [Example 5, 1-{(2R,5S)-4-[(R)-2-Amino-3-(2,4-dimethyl-phenyl)-propyl]-2-methyl-5-[3-(pyrrolidin-3-ylamino)-propyl]-piperazin-1-yl}-2-naphthalen-2-yl-ethanone], the inhibition at 1 µM came out at 41% in experiment [6], 96% in experiment [1], 75% in experiment [2] and 81% in experiment [3]. Moreover, the Ki was 685 nM in experiment [6], 31 nM in experiment [1], 395 nM in experiment [2] and 387 nM in experiment [3].

As to `Cc1ccc(C[C@H](CN2C[C@@H](C)N(C(=O)Cc3ccc4ccccc4c3)C[C@@H]2CCCN(C)CCN(C)C)N(C)C)c(C)c1` [Example 9, 1-((2R,5S)-4-[(R)-2-Dimethylamino-3-(2,4-dimethyl-phenyl)-propyl]-5-{3-[(2-dimethylamino-ethyl)-methyl-amino]-propyl}-2-methyl-piperazin-1-yl)-2-naphthalen-2-yl-ethaone], the inhibition at 1 µM in experiment [6] came out at 0%; in experiment [1], 51%; in experiment [2] it was 9%; in experiment [3], 49%.

For the molecule `CC(C)C[C@@H]1CN(C(=O)[C@H](N)Cc2ccc3ccccc3c2)[C@@H](CCCCNCCN)CN1C(=O)[C@H](N)Cc1ccc2ccccc2c1` [Example 20, (R)-2-Amino-1-[(2R,5S)-5[4-(2-amino-ethylamino)-butyl]-4-((R)-2-amino-3-naphthalen-2-yl-propionyl)-2-isobutyl-piperazin-1-yl]-3-naphthalen-2-yl-propan-1-one], the Ki in experiment [1] was 253 nM; in experiment [2] it was 321 nM; in experiment [3], 9 nM; in experiment [5], 215 nM. In addition, the inhibition at 1 µM is 49% in experiment [1], 62% in experiment [2], 99% in experiment [3] and 68% in experiment [5]. In addition, the “average decrease in body weight” value was 1.2% in experiment [4] (0.1 mg/kg) and 3% in experiment [4] (0.3 mg/kg).

Take `Cc1ccc(C[C@H](CN2C[C@@H](C)N(C(=O)Cc3ccc4ccccc4c3)C[C@@H]2CCCN2CCN(C)CC2)N(C)C)c(C)c1` [Example 10, 1-{(2R,5S)-4-[(R)-2-Dimethylamino-3-(2,4-dimethyl-phenyl)-propyl]-2-methyl-5-[3-(4-methyl-piperazin-1-yl)-propyl]-piperazin-1-yl}-2-naphthalen-2-I-ethanone]: the inhibition at 1 µM turned out to be 28% in experiment [6], 54% in experiment [1], 15% in experiment [2] and 47% in experiment [3].

As to `Cc1ccc(C[C@@H](N)CN2C[C@@H](C)N(C(=O)Cc3ccc4ccccc4c3)C[C@@H]2CCCNCCN)c(C)c1` [Example 3], the inhibition at 1 µM in experiment [6] came out at 41%; in experiment [1] it was 94%; in experiment [2] it was 82%; in experiment [3], 92%. For the same molecule, the inhibition constant Ki was 660 nM in experiment [6], 20 nM in experiment [1], 320 nM in experiment [2] and 160 nM in experiment [3].

Consider `Cc1ccc(C[C@@H](N)C(=O)N2C[C@@H](C)N(C(=O)[C@H](N)Cc3ccc(C)cc3C)C[C@@H]2CCCNCCN)c(C)c1` [Example 26, (R)-2-Amino-1-{(2R,5S)-4-[(R)-2-amino-3-(2,4-dimethyl-phenyl)-propionyl]-5-[3-(2-amino-ethylamino)-propyl]-2-methyl-piperazin-1-yl}-3-(2,4-dimethyl-phenyl)-propan-1-one], for which the inhibition at 1 µM was 76% in experiment [1], 57% in experiment [2], 96% in experiment [3] and 53% in experiment [5]. Further, the inhibition constant (Ki) in experiment [3] worked out at 64 nM.

Turning to `CC(C)C[C@@H]1CN(C[C@H](N)Cc2ccc(Cl)cc2Cl)[C@@H](CCCNCCCCCN)CN1C(=O)Cc1ccc2ccccc2c1` [Example 31, 1-{(2R,5S)-4-[(R)-2-Amino-3-(2,4-dichloro-phenyl)-propyl]-5-[3-(5-amino-pentylamino)-propyl]-2-isobutyl-piperazin-1-yl}-2-naphthalen-2-yl-ethanone], the inhibition at 1 µM in experiment [1] was found to be 87%; in experiment [2], 59%; in experiment [3], 91%; in experiment [5] it was 36%.

The values are drawn from patent US7968548B2, “Melanocortin receptor-specific piperazine compounds with diamine groups” (Palatin Technologies, Inc., priority 2005, dated 2011).
